Assay results as given in US10408783B2, “Electrochemical methods and compounds for the detection of enzymes” (GEORGIA STATE UNIVERSITY RESEARCH FOUNDATION, INC., priority 2014, dated 2019).
Entries after “also recorded” stand apart in the source; their conditions may differ.

Columns and labels:
[1] = test system: β-N-Acetylglucosaminidase; format: biochemical; conditions: substrate incubated with β-N-Acetylglucosaminidase
[2] = test system: α-L-Fucosidase; format: biochemical; conditions: substrate incubated with α-L-Fucosidase
[3] = test system: H3N2 A/HongKong/8/68; assay: Electrochemical assay, 3 electrode system: SG1 cleavage and drug susceptibility; format: biochemical, Influenza A virus; conditions: 10 ng antiviral premixed 30 min before SG1
[4] = test system: N2 NA (strain A/Babol/36/2005); assay: as above; format: biochemical, influenza virus; conditions: 10 ng antiviral premixed 30 min before SG1
[5] = test system: H3N2 A/Aichi/2/1968; assay: as above; format: biochemical, Influenza A virus; conditions: 10 ng antiviral premixed 30 min before SG1
[6] = test system: membrane free soluble N1 NA (strain H5N1 A/Anhui/1/2005); format: biochemical, influenza virus; conditions: 10 ng antiviral premixed 30 min before SG1
[7] = test system: H1N1 A/Brisbane/59/2007; assay: Electrochemical assay, 3 electrode system: SG1 cleavage and drug susceptibility; format: biochemical, Influenza A virus; conditions: 10 ng antiviral premixed 30 min before SG1
[8] = test system: bacterial NA (BNA) from Clostridium perfringens; format: biochemical; conditions: antiviral premixed with bacterial NA, then SG1
[9] = test system: H3N2 virus; assay: Hydrolysis of the probe by intact influenza virus followed by mass spectrum; format: biochemical; conditions: pH 5.68, 37° C.
[10] = test system: H3N2 NA; format: biochemical, influenza virus; conditions: H3N2 NA overnight
[11] = test system: influenza NA; assay: Hydrolysis of the probe by influenza NA followed by mass spectroscopy; format: biochemical, influenza virus
[12] = test system: H1N1 virus; assay: Hydrolysis of sialylglucose by intact influenza virus, amperometric glucose measurement; format: biochemical; conditions: for current compared with glucose standard solution: H1N1 virus
[13] = test system: H5N1 NA; format: biochemical, influenza virus; conditions: H5N1 NA overnight
[14] = test system: H3N2 virus; assay: Hydrolysis of sialylglucose by intact influenza virus, amperometric glucose measurement; format: biochemical; conditions: H3N2 virus overnight
[15] = test system: H1N1 virus; assay: Hydrolysis of the probe by intact influenza virus followed by mass spectrum; format: biochemical; conditions: pH 5.68, 37° C.
[16] = H1N1 virus 1 h, 1 mM substrate, pH 5.68, 37° C.

SMILES: CC(=O)NC1[C@H](Oc2ccc(CO[C@@H]3OC(CO)[C@@H](O)[C@H](O)C3O)cc2)OC(CO)[C@@H](O)[C@@H]1O (some centres unmarked) [Substrate 23]
- i, value of electrochemical assay [1]: 28.5 ± 4.0 10^−8 A

SMILES: CC(=O)NC1[C@@H](Oc2ccc(CO[C@@H]3OC(CO)[C@@H](O)[C@H](O)C3O)cc2)OC(CO)[C@@H](O)[C@@H]1O (some centres unmarked) [Substrate 24]
- i, value of electrochemical assay [1]: 11.1 ± 2.3 10^−8 A

SMILES: CC1O[C@@H](OCC2OC(O)C(O)[C@@H](O)[C@@H]2O)C(O)[C@@H](O)[C@@H]1O (some centres unmarked) [Substrate 25]
- i, value of electrochemical assay [2]: 44.5 ± 2.9 10^−8 A

SMILES: CC1O[C@@H](Oc2ccc(CO[C@@H]3OC(CO)[C@@H](O)[C@H](O)C3O)cc2)C(O)[C@@H](O)[C@@H]1O (some centres unmarked) [Substrate 26]
- i, value of electrochemical assay [2]: 25.2 ± 2.9 10^−8 A

SMILES: CC(=O)N[C@H]1[C@H]([C@H](O)[C@H](O)CO)OC(C(=O)O)=C[C@@H]1N=C(N)N [Zanamivir]
- inhibition of NA (glucose release from SG1) by antiviral [3]: completely inhibited; also recorded: Glucose was not released
- inhibition of NA (glucose release from SG1) by antiviral [4]: completely inhibited
- inhibition of NA (glucose release from SG1) by antiviral [5]: completely inhibited; also recorded: Glucose was not released
- inhibition of NA (glucose release from SG1) by antiviral [6]: completely inhibited
- inhibition of NA (glucose release from SG1) by antiviral [7]: completely inhibited; also recorded: Glucose was not released
- inhibition of bacterial NA (glucose release from SG1) by antiviral [8]: NA still cleaved SG1; also recorded: glucose was released

SMILES: CC(=O)N[C@H]1[C@H]([C@H](O)[C@H](O)CO)O[C@@](OC[C@H]2O[C@H](O)[C@H](O)[C@@H](O)[C@@H]2O)(C(=O)O)C[C@@H]1O [sialylglucose, 5-acetamido-3,5-dideoxy-D-glycero-α-D-galacto-non-2-ulopyranosylonate-(2→6) α-D-glucopyranoside]
- hydrolysis by intact influenza virus (mass spectrum) [9]: complete hydrolysis
- Calculated Glucose Concentration [10]: 102.3 µM
- Current [10]: 1.123E−07 A
- hydrolysis of the probe by NA (mass spectrum) ([11]; pH 5.68, 37° C., overnight): substrate peak could no longer be observed
- hydrolysis of the probe by NA (mass spectrum) ([11]; pH 7.40, room temperature, overnight incubation): incomplete hydrolysis
- Calculated Glucose Concentration [12, 16]: 116.2 µM
- Current [12, 16]: 1.262E−07 A
- Calculated Glucose Concentration ([12]; H1N1 virus 5 h): 126.6 µM
- Current ([12]; H1N1 virus 5 h): 1.366E−07 A
- Calculated Glucose Concentration ([12]; H1N1 virus overnight): 50.66 µM
- Current ([12]; H1N1 virus overnight): 6.066E−08 A
- current compared with 1 h and 5 h samples ([12]; H1N1 virus overnight): significantly lower current
- current compared with glucose standard solution ([12]; hydrolysis stopped at 1 h): ~100 µM
- current compared with glucose standard solution ([12]; hydrolysis stopped at 5 h): ~100 µM
- Calculated Glucose Concentration [13]: 66.47 µM
- Current [13]: 7.647E−08 A
- Calculated Glucose Concentration [14]: 76.09 µM
- Current [14]: 8.609E−08 A
- hydrolysis by intact influenza virus (mass spectrum) [15]: complete hydrolysis
